Results reported in patent US5001123A, “2,5-diaryl tetrahydrofurans and analogs thereof as PAF antagonists” (Merck & Co., Inc., priority 1989, dated 1991).

System: PAF specific receptor binding site, human platelet membranes
Test: inhibition of the binding of [3H] N-methylcarbamoyl-PAF to human platelet membranes
Details: trans configuration
Protocol: The compounds of formula (I) inhibit PAF induced functions in both the cellular and tissue levels by changing the PAF binding to its specific receptor site. The ability of a compound of formula (I) to inhibit the PAF binding to its specific receptor binding site on rabbit or human platelet or PMN plasma membranes was measured by a recently developed assay.
The inhibition of ^3 [H]-PAF or ^3 [H]N-methylcarbamoyl-PAF binding to the human or rabbit platelet or PMN plasma membrane by a PAF antagonist of formula (I) was determined by a method employing isotopic labeling and filtration techniques. Generally, a series of Tris buffered solutions of the selected antagonist at predetermined concentrations were prepared. […] Each washed residue was then suspended in 10 ml scintillation solution (Aquasol 2, New England Nuclear, Conn.) and the radioactivity was counted in a Packard Tri-Carb 460CD Liquid Scintillation System. Defining the counts from a test sample as "Total binding with antagonist"; the counts from the control sample C1, as "Total binding C1 "; and the counts from the control sample C2 as "non specific binding C2 ", the percent inhibition of each test antagonist can be determined by the following equations: [formula] […]

## CCCOc1c(OCC(O)CN2CCOCC2)cc([C@@H]2CC[C@@H](c3cnc(OC)c(OC)c3)O2)cc1S(=O)(=O)CC(C)O (stereo partly drawn) [Example 3, trans-2-[3-(2-Hydroxypropyl)sulfonyl-4-n-propoxy-5-(3-1-morpholino-2-hydroxypropoxy)phenyl]-5-[5-(2,3-dimethoxy)pyridyl]tetrahydrofuran]
3 nM
  % inhibition of the binding of [3H] Nmethylcarbamoyl-PAF to human platelet membranes: 11%
30 nM
  % inhibition of the binding of [3H] Nmethylcarbamoyl-PAF to human platelet membranes: 39%
